Here are results for eight compounds from patent US9770026B2, “Substituted pyrimidine compound and uses thereof” (Shenyang Sinochem Agrochemicals R&D Co., Ltd., priority 2012, dated 2017).

Experiment [1] concerns Diamond back moth. Briefly: insecticidal activity against diamond back moth, airbrush spray. It counts as in vivo. The conditions noted are these: 72 h; for pest or weed control at 600 µg/mL: 600 mg/L; for pest or weed control at 10 µg/mL: 10 mg/L; for pest or weed control at 100 µg/mL: 100 mg/L. The procedure, abridged: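 Airbrush leaf-disc spray test: both faces of 2 cm cabbage discs received 0.5 ml of test solution at 0.7 kg/cm^2. Solutions were made in acetone:methanol (1:1) and brought to concentration with 0.1% Tween 80 in water. Ten second-instar larvae per disc, triplicates, were held at 25° C and 60˜70% R.H., with mortality recorded at 72 hrs.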

The test system of experiment [2] is wheat powdery mildew. As to the kind of experiment: protectant activity in vivo against wheat powdery mildew. The settings on record: Triticum aestivum, 168 h, protectant activity; for pest or weed control at 400 µg/mL: read-out: control effect against wheat powdery mildew (%), 400 mg/L; for pest or weed control at 100 µg/mL: read-out: control effect against wheat powdery mildew (%), 100 mg/L.

Experiment [3] concerns cucumber gray mold. Briefly: fungicidal activity in vitro (inhibition rate) against cucumber gray mold. It counts as cell-based. The settings on record: 25 ppm, in vitro; read-out: inhibition rate against cucumber gray mold.
Experiment [4] concerns corn rust. Briefly: protectant activity in vivo against corn rust. The settings on record: Zea mays, 168 h, protectant activity; for pest or weed control at 6.25 µg/mL: read-out: control effect against corn rust (%), 6.25 mg/L; for pest or weed control at 25 µg/mL: read-out: control effect against corn rust (%), 25 mg/L; for pest or weed control at 100 µg/mL: read-out: control effect against corn rust (%), 100 mg/L; for pest or weed control at 400 µg/mL: read-out: control effect against corn rust (%), 400 mg/L.

Experiment [5] deals with carmine spider mite. Briefly: bioactivity test against carmine spider mite, airbrush spray. It is filed as in vivo. The settings on record: Tetranychus cinnabarinus, 72 h, contrastive test, read-out: Insecticidal activity against carmine spider mite (% ); for pest or weed control at 600 µg/mL: 600 mg/L. The procedure, abridged:
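Broadbean seedlings infested with adult mites were sprayed with compound (acetone/methanol stock diluted in 0.1% Tween 80 water) by airbrush at 0.7 kg/cm^2, 0.5 ml. Three replicates were run. Mortality was scored after 72 hrs.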

For experiment [6], the system named is rice blast. As to the kind of experiment: microbe, parasite or virus in culture. It counts as cell-based. The settings on record: Pyricularia oryzae; for inhibition at 25 ppm: read-out: inhibition rate against rice blast, 25 ppm, in vitro.
Experiment [7] relates to armyworm. As to the kind of experiment: bioactivity test against armyworm, airbrush spray. It counts as in vivo. The conditions noted are these: 72 h, read-out: Insecticidal activity against armyworm (%); for pest or weed control at 600 µg/mL: 600 mg/L.
Experiment [8] relates to cucumber downy mildew. As to the kind of experiment: protectant activity in vivo against cucumber downy mildew. The settings on record: Cucumis sativus, 168 h, protectant activity; for pest or weed control at 400 µg/mL: read-out: control effect against cucumber downy mildew (%), 400 mg/L; for pest or weed control at 25 µg/mL: read-out: control effect against cucumber downy mildew (%), 25 mg/L; for pest or weed control at 50 µg/mL: read-out: control effect against cucumber downy mildew (%), 50 mg/L; for pest or weed control at 100 µg/mL: read-out: control effect against cucumber downy mildew (%), 100 mg/L.

The subject of experiment [9] is Green peach aphids (Myzus Persicae Sulzer). Briefly: bioactivity test against green peach aphid, airbrush foliar spray. It counts as in vivo. The settings on record: Myzus persicae, foliar, 48 h, contrastive test, read-out: Insecticidal activity against peach aphid (%); for pest or weed control at 10 µg/mL: 10 mg/L; for pest or weed control at 100 µg/mL: 100 mg/L; for pest or weed control at 600 µg/mL: 600 mg/L; for pest or weed control at 2.5 µg/mL: 2.5 mg/L; for pest or weed control at 5 µg/mL: 5 mg/L. Put shortly: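 Aphids (15-30 per cabbage leaf disc) on moist filter paper were airbrush-sprayed at 10 psi, 0.5 mL, with compound from acetone:methanol (1:1) diluted in water with 0.1% tween 80. Held at 25±1 C, 60±5% RH; survivors counted after 48 hrs to give death rates.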

Turning to `CC(Cl)c1ncnc(NCCc2ccc(Oc3nc(Cl)c(Cl)cc3Cl)cc2)c1Cl` (stereo not shown) [CK63, reference compound], the pest or weed control at 600 µg/mL worked out at 57% in experiment [1], 0% in experiment [5], 71% in experiment [7] and 100% in [9]. Further, the values for the pest or weed control at 400 µg/mL in [2], in experiment [4] and in experiment [8] were 50%, 100% and 70%, respectively. Moreover, the inhibition at 25 ppm in [3] and in experiment [6] was 0% each time. Moreover, the pest or weed control at 6.25 µg/mL in [4] turned out to be 0%. In experiment [4], the pest or weed control at 25 µg/mL came out at 0%. The values for the pest or weed control at 100 µg/mL in experiment [4] and in experiment [9] were 30% and 0%, respectively. In addition, in experiment [9], the pest or weed control at 10 µg/mL is 0%.
As to `Cc1nc(C)c(Cl)c(NCc2ccc(OCc3ccccc3)cc2)n1` [CK52, reference compound], the pest or weed control at 600 µg/mL in [1] was determined as 20%; in [5], 44%; in [7] it was 0%; in [9], 88%. Also, the pest or weed control at 400 µg/mL in experiment [2] amounted to 0%; in experiment [4], 85%; in experiment [8] it was 100%. Besides, in experiment [3], the inhibition (as a rule, the share of the control response that was lost under treatment) at 25 ppm was 0%. In addition, in experiment [6] (read-out: inhibition rate against rice blast, 8.3 ppm, in vitro), the inhibition at 8.3 ppm came to 0%. For the same compound, the pest or weed control at 25 µg/mL in [8] amounted to 70%. The pest or weed control at 50 µg/mL in experiment [8] worked out at 90%. Moreover, the figures for the pest or weed control at 100 µg/mL in experiment [8] and in [9] were 98% and 0%, respectively. Also, the pest or weed control at 10 µg/mL in [9] is 0%.
Consider `CC(Cl)c1ncnc(NCCc2ccc(Oc3ccc(C(F)(F)F)cc3)cc2)c1Cl` (stereo not shown) [CK20, reference compound], for which the results for the pest or weed control at 600 µg/mL in [1] and in [5] were 57% and 100%, respectively. Moreover, the pest or weed control at 6.25 µg/mL is 0% in experiment [2] (read-out: control effect against wheat powdery mildew (%), 6.25 mg/L) and 0% in experiment [4]. Besides, the pest or weed control at 25 µg/mL in experiment [2] (read-out: control effect against wheat powdery mildew (%), 25 mg/L) was found to be 0%; in experiment [4] it was 0%; in experiment [8], 0%. Moreover, the pest or weed control at 100 µg/mL was determined as 30% in [2], 70% in experiment [4], 72% in experiment [5] (100 mg/L) and 10% in experiment [8]. Also, the pest or weed control at 400 µg/mL in [2], in experiment [4] and in experiment [8] was 100% each time. The inhibition at 25 ppm in experiment [3] and in experiment [6] was less than 50% each time. Further, the pest or weed control at 10 µg/mL in experiment [7] (10 mg/L) worked out at 0%. Moreover, the pest or weed control at 50 µg/mL in [8] was 0%.
As for `CCC(Nc1nc(Cl)nc(C(=O)OC)c1Cl)c1ccc(Oc2ncc(C(F)(F)F)cc2Cl)cc1` (stereo not shown) [CK35, reference compound], the pest or weed control at 600 µg/mL in experiment [1], in [5], in [7] and in experiment [9] was 0% in each case. Besides, the results for the pest or weed control at 400 µg/mL in experiment [2], in experiment [4] and in experiment [8] were 0%, 0% and 60%, respectively. Moreover, the inhibition at 25 ppm is 0% in experiment [3] and less than 50% in experiment [6].
As to `Cc1ncnc(NC(=O)Cc2ccc(Oc3ccc(C(F)(F)F)cc3Cl)cc2)c1Cl` [CK58, reference compound], the pest or weed control at 600 µg/mL came out at 0% in experiment [1], 0% in experiment [5], 0% in experiment [7] and 100% in experiment [9]. Also, the pest or weed control at 400 µg/mL in experiment [2], in [4] and in [8] was 0% each time. Also, the inhibition at 25 ppm was 0% in experiment [3] and less than 50% in experiment [6]. In addition, the pest or weed control at 10 µg/mL in experiment [9] stood at 0%. Further, in experiment [9], the pest or weed control at 100 µg/mL was determined as 0%.
For the compound `CC(Cl)c1ncnc(NCCc2ccc(Oc3ncc(C(F)(F)F)cc3Cl)cc2)c1Cl` (stereo not shown) [CK21, reference compound], the results for the pest or weed control at 10 µg/mL in experiment [1] and in experiment [9] were 10% and 35%, respectively. The pest or weed control at 100 µg/mL in experiment [1] worked out at 25%; in experiment [9] it was 98%. For the same compound, the pest or weed control at 600 µg/mL in experiment [1] came out at 80%; in experiment [5] it was 0%; in experiment [7], 0%; in experiment [9], 100%. The values for the pest or weed control at 400 µg/mL in experiment [2] and in [4] were 0% and 85%, respectively. Besides, the inhibition at 25 ppm in experiment [3] is less than 50%; in experiment [6], 0%. Besides, the pest or weed control at 2.5 µg/mL in [9] is 0%. In addition, the pest or weed control at 5 µg/mL in experiment [9] turned out to be 19%.
Take `CC(Cl)c1ncnc(NCCc2ccc(Oc3ncc(Cl)cc3Cl)cc2)c1Cl` (stereo not shown) [CK45, reference compound]: the figures for the pest or weed control at 10 µg/mL in experiment [1] and in [9] were 0% and 55%, respectively. In addition, the pest or weed control at 100 µg/mL stood at 12% in experiment [1] and 98% in experiment [9]. Further, the pest or weed control at 600 µg/mL in experiment [1] stood at 86%; in experiment [5] it was 0%; in [7], 0%; in experiment [9], 100%. The pest or weed control at 400 µg/mL in [2] turned out to be 0%; in experiment [4], 80%. Also, the inhibition at 25 ppm in experiment [3] is less than 50%; in [6], 0%. Besides, in experiment [9] (1.25 mg/L), the pest or weed control at 1.25 µg/mL was determined as 0%. Also, in [9], the pest or weed control at 2.5 µg/mL turned out to be 26%. Also, the pest or weed control at 5 µg/mL in experiment [9] came to 39%.
Regarding `CC(Cl)c1ncnc(NCCc2ccc(O)cc2)c1Cl` (stereo not shown) [CK4, reference compound], the pest or weed control at 600 µg/mL in [1] stood at 0%; in [5] it was 75%; in [7], 40%; in experiment [9], 100%. Besides, the pest or weed control at 100 µg/mL amounted to 0% in [2], 0% in experiment [4] and 100% in experiment [9]. Also, the values for the pest or weed control at 400 µg/mL in experiment [2] and in experiment [4] were 40% and 0%, respectively. For the same compound, the inhibition at 25 ppm in experiment [3] was 0%; in [6], less than 50%. The pest or weed control at 2.5 µg/mL in experiment [9] came out at 0%. The pest or weed control at 5 µg/mL in [9] is 41%. Also, the pest or weed control at 10 µg/mL in [9] was found to be 64%.
